The source of these data is ChEMBL document CHEMBL1201862, “PubChem BioAssay data set” (2004).

Among the test systems are NCI-H522; NCI/ADR-RES; SN12C; OVCAR-8; KM12; M14; TK-10; SNB-19; MCF7; OVCAR-5; UO-31; K562; SNB-75; MOLT-4; MDA-MB-435; SF-539; HT-29; SK-OV-3; A498.
Holding throughout (experiment): NCI tumour cell line growth inhibition, 48 h

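The compound was tested at five concentrations on cells cultured in 96-well plates, with a 48-hour exposure period. GI50 is the concentration that inhibits growth by half.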 Activity calls are given as the source filed them. Rule as the data show it: active = GI50 up to about 1.1 µM and inactive = higher.

As for `COc1cc(C(=O)n2c3ccc(Br)cc3c3nc4ccccc4nc32)cc(OC)c1OC`, the GI50 in the assay on NCI-H522 was 36.6 µM (inactive); with NCI/ADR-RES, > 100 µM (inactive); in the assay with SN12C it was > 100 µM (inactive); with OVCAR-8, > 100 µM (inactive); in the assay on KM12 it was > 100 µM (inactive); with M14, > 100 µM (inactive). For the same compound, the GI50 with TK-10 was 32.7 µM (inactive); in the assay on SNB-19, 51.6 µM (inactive); with MCF7, > 100 µM (inactive); in the assay with OVCAR-5, > 100 µM (inactive); in the assay with UO-31, > 100 µM (inactive); in the assay with K562 it was > 100 µM (inactive). In addition, the GI50 is 26.2 µM (inactive) in the assay with SNB-75; 50.8 µM (inactive) with MOLT-4; > 100 µM (inactive) in the assay with MDA-MB-435; 23.8 µM (inactive) in the assay with SF-539; > 100 µM (inactive) in the assay on HT-29.

Turning to `CCOc1cc(CC[N+](C)(C)C)c2c(ccc3ccc(OC)c(OC)c32)c1OC`, the GI50 with SK-OV-3, in the assay on NCI-H522, in the assay on NCI/ADR-RES, in the assay with SN12C, in the assay with OVCAR-8 and with M14 was > 100 µM (inactive) each time. In addition, the GI50 with SNB-19 was > 100 µM (inactive); in the assay with UO-31, > 100 µM (inactive); in the assay on SNB-75 it was > 100 µM (inactive); with MOLT-4, > 10 µM (inactive); in the assay with MDA-MB-435 it was > 100 µM (inactive); in the assay on HT-29, > 100 µM (inactive).

Take `COc1cc2c(cc1OC)[C@@H](Nc1ccc(F)cc1)C1COC(=O)[C@@H]1C2c1cc(OC)c(O)c(OC)c1` (some centres not stated): the GI50 with SK-OV-3 was 1.56 µM (inactive); in the assay on NCI-H522, 2.2 µM (inactive); in the assay on SN12C, 1.56 µM (inactive); with OVCAR-8 it was 1.99 µM (inactive); in the assay with KM12 it was 2.77 µM (inactive); with M14 it was 1.24 µM (inactive). Further, the GI50 is 7.18 µM (inactive) in the assay on TK-10; 1 µM (active) in the assay with SNB-19; 3.33 µM (inactive) in the assay on OVCAR-5; 2.14 µM (inactive) in the assay on UO-31; 1.14 µM (inactive) in the assay on A498; 1.19 µM (inactive) in the assay on K562. The GI50 in the assay with SNB-75 is 2.5 µM (inactive); with MOLT-4, 0.0147 µM (active); in the assay with SF-539, 0.594 µM (active); in the assay with HT-29, 3.66 µM (inactive).

As to `COP1(=S)OCC2CCC[C@@H]2O1` (some centres not stated), the GI50 in the assay on NCI-H522, in the assay on NCI/ADR-RES, with SN12C, in the assay on OVCAR-8, in the assay on KM12 and with M14 was > 100 µM (inactive) each time. The GI50 with TK-10, in the assay on SNB-19, with OVCAR-5, in the assay on UO-31, with A498 and in the assay on K562 was > 100 µM (inactive) in each case. The GI50 in the assay on SNB-75, in the assay on MOLT-4, in the assay on MDA-MB-435, with SF-539 and in the assay with HT-29 was > 100 µM (inactive) each time.

On to `NC1=NC(=O)C2(NN1)c1ccccc1-c1ccccc12`, for which the GI50 with SK-OV-3 is > 10 µM (inactive); in the assay with NCI/ADR-RES it was 7.41 µM (inactive); with SN12C, > 10 µM (inactive); with OVCAR-8, > 10 µM (inactive); in the assay on KM12, > 10 µM (inactive); in the assay on M14, > 10 µM (inactive). The GI50 was > 10 µM (inactive) with TK-10; > 10 µM (inactive) in the assay on SNB-19; 3.26 µM (inactive) with MCF7; > 10 µM (inactive) in the assay with OVCAR-5; > 10 µM (inactive) in the assay with UO-31; 3.94 µM (inactive) in the assay with A498. Besides, the GI50 in the assay on K562 is 9.82 µM (inactive); with SNB-75, > 10 µM (inactive); in the assay on MOLT-4 it was > 10 µM (inactive); in the assay with SF-539, > 10 µM (inactive).

Consider `C1CCN(c2nsc(N3CCCCC3)n2)CC1`, for which the GI50 with SK-OV-3, with NCI-H522, in the assay on SN12C, with OVCAR-8, in the assay on KM12 and in the assay on M14 was > 100 µM (inactive) in each case. Also, the GI50 in the assay on TK-10, with SNB-19, with OVCAR-5, in the assay on UO-31, with A498 and in the assay with K562 was > 100 µM (inactive) each time. The GI50 in the assay on SNB-75, in the assay with MOLT-4, in the assay with SF-539 and in the assay with HT-29 was > 100 µM (inactive) each time.

`O=Cc1cc(O)c(O)c(O)c1-c1c(C=O)cc(O)c(O)c1O`: the GI50 in the assay with SK-OV-3, in the assay on NCI-H522, with SN12C, in the assay on OVCAR-8, in the assay on KM12 and in the assay with M14 was > 100 µM (inactive) in each case. Also, the GI50 in the assay with TK-10 is > 100 µM (inactive); with SNB-19, > 100 µM (inactive); in the assay with OVCAR-5, > 100 µM (inactive); in the assay on UO-31 it was > 100 µM (inactive); in the assay with A498 it was > 100 µM (inactive); with K562 it was 67.6 µM (inactive). The GI50 in the assay with SNB-75, in the assay on MOLT-4, with SF-539 and with HT-29 was > 100 µM (inactive) throughout.

As to `CCOC(=O)CN(Cc1ccccc1)Cc1c(C(=O)c2ccccc2)c2ccccc2n1C(=O)c1ccccc1`, the GI50 in the assay on SK-OV-3, in the assay with NCI-H522, with SN12C, in the assay on OVCAR-8, with KM12 and in the assay with M14 was > 100 µM (inactive) each time. For the same compound, the GI50 with TK-10, with SNB-19, in the assay on OVCAR-5, in the assay on UO-31, in the assay with A498 and in the assay with K562 was > 100 µM (inactive) throughout. Also, the GI50 in the assay on SNB-75 is 18.3 µM (inactive); in the assay with MOLT-4 it was 5.4 µM (inactive); with SF-539, > 100 µM (inactive); in the assay on HT-29 it was > 100 µM (inactive).

Turning to `CN(C)C(=O)Nc1c([N+](=O)[O-])cc(C(F)(F)F)cc1[N+](=O)[O-]`, the GI50 was > 100 µM (inactive) in the assay on SK-OV-3; 29.9 µM (inactive) in the assay on NCI-H522; 45.7 µM (inactive) with SN12C; 40.4 µM (inactive) in the assay on OVCAR-8; 37 µM (inactive) in the assay with KM12; 44.6 µM (inactive) in the assay on M14. The GI50 in the assay on TK-10 is > 100 µM (inactive); in the assay on SNB-19, > 100 µM (inactive); with OVCAR-5 it was > 100 µM (inactive); in the assay on UO-31, > 100 µM (inactive); with A498, > 100 µM (inactive); in the assay on K562, 37.6 µM (inactive). Also, the GI50 is 74 µM (inactive) with SNB-75, 78.5 µM (inactive) in the assay on MOLT-4, 42 µM (inactive) in the assay with SF-539 and 35 µM (inactive) in the assay on HT-29.
